Reference: US20230043813A1, “METHODS FOR TARGETED CELL DEPLETION” (The Regents of the University of California, priority 2019, published 2023)

Key:
[1] = system: Cas9 expressing U-251, LN-229, T98G, and LN-18 glioblastoma cells; test: cell cycle analysis (PI staining, flow cytometry); type: cell-based, human; details: one to five days; TMZ 50 μM or 100 μM
Method: The effects of genome shredding on cell cycle progression were then assessed. Cells were treated with TMZ or sgCIDEs for one to five days and then stained with PI after fixation for analysis by flow cytometry. […] Increases of the Sub-G1 population was more prominent in TP53-mutant U-251 cells compared LN-229 with wild-type TP53, consistent with previous observations that TP53 status affects resolution of the G2/M arrest.

[2] = system: U-251, LN-229, T98G and LN-18 glioblastoma cells; test: luminescence-based quantification of cell viability; set-up: species or system human; details: over five days
Method: To investigate the speed of cell elimination by either method, Cas9 expressing TMZ-sensitive U-251 and LN-229, and TMZ-resistant T98G and LN-18, glioblastoma cells were treated with TMZ or these cells were transduced with lentiviral vectors expressing sgCIDEs.

[3] = system: HEK293T and HAP1 cells; test: mammalian competitive proliferation assay, cells expressing Cas9 WT; type: cell-based, human; details: WT Cas9, eight-day assay period
Text: (§1) For assessment of CRISPR-Cas programmed cell depletion using guide RNAs targeting an essential gene (RPA1) or sgCIDEs targeting hundreds of thousands of loci within the genome, cells were stably transduced with a lentiviral vector expressing Cas9-wt (pCF226) or ProCas9Flavi (pCF730) and selected on puromycin. Subsequently, these cell lines were further stably transduced with vectors expressing various mCherry-tagged sgRNAs and analyzed as follows: 1) After mixing sgRNA expressing populations with parental cells, the fraction of mCherry-positive cells was quantified over time. Different sgRNAs targeting a neutral gene (sgOR2B6), an essential gene (sgRPA1), >100,000 genomic loci (sgCIDE) and a non-targeting control (sgNT) were compared. 2) Alternatively, the cell lines were partially transduced with lentiviral vectors expressing a GFP-tagged dTEV (pCF736) or WNV (pCF738) protease, and cell depletion quantified by flow cytometry. Depletion of protease-expressing (GFP+) cells was quantified among the sgRNA-positive (mCherry+) population.
The effect of guide RNA expression on cell viability was assessed using a competitive proliferation assay in which cells expressing a specific sgRNA were mixed with parental cells expressing only Cas9 WT, and the mCherry-positive population was followed over time. […] Guide RNAs targeting the essential RPA1 gene depleted over the eight-day assay period.

[4] = system: Cas9 expressing U-251 and LN-229; test: comet assay (genomic fragmentation); type: cell-based, human; details: 24 hours post-transduction, compared to sgNT-1/2/3
Text: To look at the genomic effects of repetitive loci targeting, DNA from lysed targeted cells was separated on agarose-coated slides.

[5] = system: Cas9 expressing U-251, LN-229, T98G, and LN-18 cells; test: colony formation assay (crystal violet); type: cell-based, human; details: all four tested GBM cell lines, two weeks
Method: Because recurrent tumors develop from cells that escape treatment, either by avoiding exposure, tolerating the effects, or developing resistance, colony formation assays were performed to evaluate the robustness of CRISPR-Cas genome shredding in eliminating target cells.
TMZ-resistant LN-229 cell lines were isolated to determine which types of treatments could overcome such resistance. Cas9 expressing U-251, LN-229, T98G, and LN-18 cells were stably transduced with lentiviral vectors expressing sgNT-1/2 or sgCIDE-1/2/3/6/8/10 (Table 2), and seeded at 100, 1,000, and 10,000 cells per 6-well plate. Control cells were treated with DMSO or TMZ (50 μM).

[6] = system: HEK293T and HAP1 cells expressing ProCas9Flavi; test: competitive proliferation assay, cells expressing ProCas9Flavi; type: cell-based, human; details: for cell depletion with protease: ProCas9Flavi cells, WNV protease vs dTEV; for cell depletion in the absence of a stimulus: genomically integrated ProCas9Flavi
Text: as §1
Cas-induced death by editing or ‘CIDE, as an output constrains the performance of ProCas9. The system remains off to minimize genomic damage yet is vigilant to respond to a stimulus. To develop this protease-induced altruistic defense platform, stable expression of the best CIDE guide RNAs (sgCIDE-2, sgCIDE-4) was assessed in conjunction with a genomically integrated ProCas9Flavi cassette to determine cell viability in the absence of a stimulus (FIG. 5B). […] Induction of this stably integrated altruistic defense system was then tested by Flavivirus proteases.

With “sgCIDE-1: guide RNA TGTAATCCCAGCACTTTGGG (SEQ ID NO:1), targets repetitive genomic sites (chemistry not given here)” the cell cycle profile [1] was “rapid increase of the Sub-G1 population starting at day one post-transduction”, the “lethality (cell viability)” value [2] was “viral titer-dependent lethality in all four tested glioblastoma cell lines” and the “depletion of the mCherry-positive population” value [3] was “rapid elimination of the mCherry-positive population”. For the same substance, the “comet tails (genomic fragmentation)” value [4] was “very long tails” and the “effect on colony count” value [5] was “over three log-scales reduction in colony count”.
In the case of “sgCIDE-2: guide RNA TCCCAAAGTGCTGGGATTAC (SEQ ID NO:2) (chemistry not given here)”, the “cell depletion with protease” value [6] was “specific cell depletion”, the “cell depletion in the absence of a stimulus” value [6] was “only minimal amounts of cell depletion” and the cell cycle profile [1] was “rapid increase of the Sub-G1 population starting at day one post-transduction”. For the same substance, the “lethality (cell viability)” value [2] was “viral titer-dependent lethality in all four tested glioblastoma cell lines”, the “depletion of the mCherry-positive population” value [3] was “rapid elimination of the mCherry-positive population” and the “comet tails (genomic fragmentation)” value [4] was “very long tails”. The “effect on colony count” value [5] was “over three log-scales reduction in colony count”.
In the case of “sgCIDE-3: guide RNA GCCTGTAATCCCAGCACTTT (SEQ ID NO:3) (chemistry not fully specified)”, the cell cycle profile [1] was “rapid increase of the Sub-G1 population starting at day one post-transduction”, the “lethality (cell viability)” value [2] was “viral titer-dependent lethality in all four tested glioblastoma cell lines” and the “comet tails (genomic fragmentation)” value [4] was “very long tails”. The “effect on colony count” value [5] was “over three log-scales reduction in colony count”.
“sgCIDE-4: guide RNA CGCCTGTAATCCCAGCACTT (SEQ ID NO:4) (chemistry not given here)” was tested, and the “cell depletion with protease” value [6] was “specific cell depletion”, the “cell depletion in the absence of a stimulus” value [6] was “only minimal amounts of cell depletion” and the “depletion of the mCherry-positive population” value [3] was “rapid elimination of the mCherry-positive population”.
In the case of “sgCIDE-5: guide RNA CCTCGGCCTCCCAAAGTGCT (SEQ ID NO:5) (chemistry not given here)”, the “depletion of the mCherry-positive population” value [3] was “rapid elimination of the mCherry-positive population”.
With “sgCIDE-6: guide RNA CCCAGCACTTTGGGAGGCCG (SEQ ID NO:6) (chemistry not fully specified)” the cell cycle profile [1] was “rapid increase of the Sub-G1 population starting at day one post-transduction”, the “lethality (cell viability)” value [2] was “viral titer-dependent lethality in all four tested glioblastoma cell lines” and the “effect on colony count” value [5] was “over three log-scales reduction in colony count”.
With “sgCIDE-8: guide RNA CTGTAATCCCAGCACTTTGG (SEQ ID NO:8) (chemistry not fully specified)” the cell cycle profile [1] was “rapid increase of the Sub-G1 population starting at day one post-transduction”, the “lethality (cell viability)” value [2] was “viral titer-dependent lethality in all four tested glioblastoma cell lines” and the “effect on colony count” value [5] was “over three log-scales reduction in colony count”.
“sgCIDE-10: guide RNA TTCTCCTGCCTCAGCCTCCC (SEQ ID NO:10) (chemistry not fully specified)” was tested, and the cell cycle profile [1] was “rapid increase of the Sub-G1 population starting at day one post-transduction”, the “lethality (cell viability)” value [2] was “viral titer-dependent lethality in all four tested glioblastoma cell lines” and the “effect on colony count” value [5] was “over three log-scales reduction in colony count”.
“sgNT-1: non-targeting guide RNA GGCCAAACGTGCCCTGACGG (SEQ ID NO:29) (chemistry not fully specified) [reference compound]” was tested, and the cell cycle profile [1] was “comparable normal cell cycle profiles”, the “lethality (cell viability)” value [2] was “no effect” and the “effect on colony count” value [5] was “little effect on colony formation”.
“sgNT-2: non-targeting guide RNA GCGATGGGGGGGTGGGTAGC (SEQ ID NO:30) (chemistry not fully specified) [reference compound]” was tested, and the cell cycle profile [1] was “comparable normal cell cycle profiles”, the “lethality (cell viability)” value [2] was “no effect” and the “effect on colony count” value [5] was “little effect on colony formation”.
“sgOR2B6-1: guide RNA to olfactory receptor gene, CATTATTCTAGTGTCACGCC (SEQ ID NO:32) (chemistry not given here) [reference compound]” was tested, and the cell cycle profile [1] was “comparable normal cell cycle profiles” and the “depletion of the mCherry-positive population” value [3] was “no depletion”.
For “sgOR2B6-2: guide RNA to olfactory receptor gene, GGGTATGAAGTTTGGTGTCC (SEQ ID NO:33) (chemistry not given here) [reference compound]”, the cell cycle profile [1] was “comparable normal cell cycle profiles” and the “depletion of the mCherry-positive population” value [3] was “no depletion”.
In the case of “sgRPA1-2: guide RNA to essential gene RPA1, TACCTGGAGCAACTCCCGAG (SEQ ID NO:36) [reference compound]”, the cell cycle profile [1] was “accumulation in S-phase starting at day three, accompanied by increase of the Sub-G1 population”.
In the case of “sgRPA1-3: guide RNA to essential gene RPA1, ACTTTCGTCAACCAGTTCTA (SEQ ID NO:37) [reference compound]”, the cell cycle profile [1] was “accumulation in S-phase starting at day three, accompanied by increase of the Sub-G1 population”.
